# Experimental data taken from patent US11319303B2 (WIGEN BIOMEDICINE TECHNOLOGY (SHANGHAI) CO., LTD., priority 2017, dated 2022).
# Target: LC3B (Homo sapiens, UniProt Q9GZQ8)
# Experiment: Fluorescence Polarization (FP) Assay: displacement of FITC-labeled peptide from GST-LC3B
# Assay type: binding
# Details: Fluorescence Polarization assay; GST-LC3B 180 nM, FITC-labeled peptide 18 nM, 25° C.; read-out: IC50
# Experimental: The compounds of the present invention for regulating the autophagy-related protein LC3B were tested by Fluorescence Polarization (FP) Assay.
# Fluorescence Polarization (FP) Assay Test
row,IC50 [µM],SMILES
1,< 3,"CC(=O)N1CCN(CCNC=C2C(=O)CC(c3ccc(C)cc3)CC2=O)CC1 (stereo not drawn) [Compound 225, 2-(((2-(4-acetylpiperazin-1-yl)ethyl)amino)methylene)-5-(p-tolyl) cyclohexane-1,3-dione]"
2,< 3,"Cc1ccc(C2CC(=O)C(=CNCCN3CCN(C(=O)N4CCOCC4)CC3)C(=O)C2)cc1 (stereo not drawn) [Compound 226, 2-(((2-(4-(morpholine-4-carbonyl)piperazin-1-yl)ethyl)amino)methylene)-5-(p-tolyl) cyclohexane-1,3-dione]"
3,< 3,"CCCNC(=O)N1CCN(CCNC=C2C(=O)CC(c3ccc(C)cc3)CC2=O)CC1 (stereo not drawn) [Compound 228, 4-(2-(((2,6-dioxo-4-(p-tolyl)cyclohexylidene)methyl)amino)ethyl)-N-propylpiperazine-1-carboxamide]"
4,< 3,"Cc1ccc(C2CC(=O)C(=CNCCN3CCN(CCO)CC3)C(=O)C2)cc1 (stereo not drawn) [Compound 229, 2-(((2-(4-(2-hydroxyethyl)piperazin-1-yl)ethyl)amino)methylene)-5-(p-tolyl) cyclohexane-1,3-dione]"
5,< 3,"C=CC(=O)N1CCN(CCNC=C2C(=O)CC(c3ccc(C)cc3)CC2=O)CC1 (stereo not drawn) [Compound 232, 2-(((2-(4-acryloylpiperazin-1-yl)ethyl)amino)methylene)-5-(p-tolyl) cyclohexane-1,3-dione]"
6,3 to 15,"O=C1CC(c2ccccc2)CC(=O)C1=CNCCN1CCNCC1 (stereo not drawn) [Compound 236, 5-phenyl-2-(((2-(piperazin-1-yl)ethyl)amino)methylene) cyclohexane-1,3-dione]"
7,3 to 15,"Cc1ccc(C2CC(=O)C(=CNCCN3CCNCC3)C(=O)C2)cc1 (stereo not drawn) [Compound 237, 2-(((2-(piperazin-1-yl)ethyl)amino)methylene)-5-(p-tolyl) cyclohexane-1,3-dione]"
8,3 to 15,"CN(C)C=C1C(=O)CC(c2ccc(N(C)C)cc2)CC1=O (stereo not drawn) [Compound 242, 2-((dimethylamino)methylene)-5-(4-(dimethylamino)phenyl) cyclohexane-1,3-dione]"

# The remaining lines, values behind:
row,SMILES,IC50 [µM]
1,"Cc1ccc(C2CC(=O)C(=CNCCN3CCN(S(=O)(=O)c4ccc(C)cc4)CC3)C(=O)C2)cc1 (stereo not drawn) [Compound 227, 5-(p-tolyl)-2-(((2-(4-tosylpiperazin-1-yl)ethyl)amino)methylene) cyclohexane-1,3-dione]",100 to 1000
2,"Cc1ccc(C2CC(=O)C(=CNCCN3CCN(CCCO)CC3)C(=O)C2)cc1 (stereo not drawn) [Compound 230, 2-(((2-(4-(3-hydroxypropyl)piperazin-1-yl)ethyl)amino)methylene)-5-(p-tolyl) cyclohexane-1,3-dione]",< 3
3,"Cc1ccc(C2CC(=O)C(=CNCCN3CCN(C(=S)Nc4ccccc4)CC3)C(=O)C2)cc1 (stereo not drawn) [Compound 231, 4-(2-(((2,6-dioxo-4-(p-tolyl)cyclohexylidene)methyl)amino)ethyl)-N-phenylpiperazine-1-carbothioamide]",< 3
4,"C=C(C)C(=O)N1CCN(CCNC=C2C(=O)CC(c3ccc(C)cc3)CC2=O)CC1 (stereo not drawn) [Compound 233, 2-(((2-(4-methacryloyl-piperazin-1-yl)ethyl)amino)methylene)-5-(p-tolyl) cyclohexane-1,3-dione]",< 3
5,"CCN1CCN(CCNC=C2C(=O)CC(c3ccc(C)cc3)CC2=O)CC1 (stereo not drawn) [Compound 238, 2-(((2-(4-ethylpiperazin-1-yl)ethyl)amino)methylene)-5-(p-tolyl) cyclohexane-1,3-dione]",< 3
6,"Cc1ccc(C2CC(=O)C(=CNCCN3CCN(C(=O)N(C)C)CC3)C(=O)C2)cc1 (stereo not drawn) [Compound 240, 4-(2-(((2,6-dioxo-4-(p-tolyl)cyclohexylidene)methyl)amino)ethyl)-N,N-dimethyl-piperazine-1-carboxamide]",< 3
7,"COc1ccc(C2CC(=O)C(=CN(C)C)C(=O)C2)cc1 (stereo not drawn) [Compound 241, 2-((dimethylamino)methylene)-5-(4-methoxyphenyl) cyclohexane-1,3-dione]",< 3
